System: Aβ peptide (1-40 amino acid sequence)
Experiment: Anti-Aβ IgG antibody titer of murine serum after immunization with Aβ peptides (ELISA on immobilized Aβ 1-40)
Type: in vivo, C57BL/6 mice
Details: for Antibody titer Animal No. 1 / Antibody titer Animal No. 2 / Antibody titer Animal No. 3 / Antibody titer Animal No. 4: C57BL/6 mouse serum, Day 7 from final 3rd immunization; for Antibody titer Animal No. 1 / Antibody titer Animal No. 2 / Antibody titer Animal No. 3 / Antibody titer Animal No. 4 / Antibody titer Mean: 100 μg/mouse; for Antibody titer Mean: mean of 4 mice, serum Day 7 from final 3rd immunization
[1] = Example 8, result in words on Table 8
[2] = Example 7, result in words on Table 7
[3] = Example 2, result in words on Table 2
[4] = Example 4, result in words on Table 4
[5] = Example 1, result in words on Table 1

DAEFRHDSGYEVHHQKLVCKGAIIGLMVGC [1-18Cys28-37AACys, Aβ residues 1-18, cysteine, Aβ residues 28-37, C-terminal cysteine]
Antibody titer Animal No. 1 (Example 8): 1073 ng/mL | Antibody titer Animal No. 2 (Example 8): 43 ng/mL | Antibody titer Animal No. 3 (Example 8): 10 ng/mL | Antibody titer Animal No. 4 (Example 8): 4864 ng/mL | Antibody titer Mean (Example 8): 1497.5 ng/mL | induction of an antibody to Aβ [1]: observed

DAEFRHDSGYEVHHQKLVCFFAEDVGSN [1-18Cys19-27AA, 27-amino acid Aβ peptide wherein cysteine is inserted between residues Nos. 18 and 19]
Antibody titer Animal No. 1 (Example 7): 2482 ng/mL | Antibody titer Animal No. 2 (Example 7): 3125 ng/mL | Antibody titer Animal No. 3 (Example 7): 2631 ng/mL | Antibody titer Animal No. 4 (Example 7): 17.2 ng/mL | Antibody titer Mean (Example 7): 2063.8 ng/mL | induction of an antibody to Aβ [2]: observed

DAEFRHDSGYKGAIIGLMVGGVVIC [1-10•28-41AACys, 1-10+28-41-amino acid Aβ peptide with addition of Cysteine]
Antibody titer Animal No. 1 (Example 2): 292 ng/mL | Antibody titer Animal No. 2 (Example 2): 1000 ng/mL | Antibody titer Animal No. 3 (Example 2): 48460 ng/mL | Antibody titer Animal No. 4 (Example 2): 422012 ng/mL | Antibody titer Mean (Example 2): 117941.1 ng/mL | induction of an antibody to Aβ [3]: observed

EFRHDSGYKGAIIGLMVGC (added cysteine) [3-10•28-37AACys, 3-10+28-37-amino acid Aβ peptide with addition of Cysteine]
Antibody titer Animal No. 1 (Example 4): 3203 ng/mL | Antibody titer Animal No. 2 (Example 4): 1456 ng/mL | Antibody titer Animal No. 3 (Example 4): 4500 ng/mL | Antibody titer Animal No. 4 (Example 4): 52 ng/mL | Antibody titer Mean (Example 4): 2302.8 ng/mL | induction of an antibody to Aβ [4]: observed

FRHDSGYKGAIIGLMVGC (added cysteine) [4-10•28-37AACys, 4-10+28-37-amino acid Aβ peptide with addition of Cysteine]
Antibody titer Animal No. 1 (Example 4): 24 ng/mL | Antibody titer Animal No. 2 (Example 4): 31 ng/mL | Antibody titer Animal No. 3 (Example 4): 53 ng/mL | Antibody titer Animal No. 4 (Example 4): 27 ng/mL | Antibody titer Mean (Example 4): 33.8 ng/mL

AEFRHDSGYKGAIIGLMVGC [2-10•28-37AACys, 2-10+28-37-amino acid Aβ peptide with addition of Cysteine]
Antibody titer Animal No. 1 (Example 4): 72890 ng/mL | Antibody titer Animal No. 2 (Example 4): 57573 ng/mL | Antibody titer Animal No. 3 (Example 4): 6094 ng/mL | Antibody titer Animal No. 4 (Example 4): 42593 ng/mL | Antibody titer Mean (Example 4): 44787.5 ng/mL | induction of an antibody to Aβ [4]: observed

DAEFRHDSGYAIIGLMVGGVVIAC [1-10•30-42AACys, 1-10+30-42-amino acid Aβ peptide with addition of Cysteine]
Antibody titer Animal No. 1 (Example 1): 9 ng/mL | Antibody titer Animal No. 2 (Example 1): 7 ng/mL | Antibody titer Animal No. 3 (Example 1): 11 ng/mL | Antibody titer Animal No. 4 (Example 1): 8 ng/mL | Antibody titer Mean (Example 1): 8.4 ng/mL

DAEFRHDSGYGAIIGLMVGGVVIAC [1-10•29-42AACys, 1-10+29-42-amino acid Aβ peptide with addition of Cysteine]
Antibody titer Animal No. 1 (Example 1): 16 ng/mL | Antibody titer Animal No. 2 (Example 1): 16 ng/mL | Antibody titer Animal No. 3 (Example 1): 87 ng/mL | Antibody titer Animal No. 4 (Example 1): 11 ng/mL | Antibody titer Mean (Example 1): 32.6 ng/mL

DAEFRHDSGYEVHHQKLVCFFAEDVGS [1-18Cys19-26AA, 26-amino acid Aβ peptide wherein cysteine is inserted between residues Nos. 18 and 19]
Antibody titer Animal No. 1 (Example 7): 127.5 ng/mL | Antibody titer Animal No. 2 (Example 7): 7001 ng/mL | Antibody titer Animal No. 3 (Example 7): 15779 ng/mL | Antibody titer Animal No. 4 (Example 7): 164 ng/mL | Antibody titer Mean (Example 7): 5767.9 ng/mL | induction of an antibody to Aβ [2]: observed

DAEFRHDSGYKGAIIGLMVGGVVIAC [1-10•28-42AACys, 1-10+28-42-amino acid Aβ peptide with addition of Cysteine]
antibody titer against Aβ as compared to the peptide without addition of cysteine (1-10·28-42AA) (Example 1): higher antibody titer | Antibody titer Animal No. 1 (Example 1): 46266 ng/mL | Antibody titer Animal No. 2 (Example 1): 19854 ng/mL | Antibody titer Animal No. 3 (Example 1): 40681 ng/mL | Antibody titer Animal No. 4 (Example 1): 33 ng/mL | Antibody titer Mean (Example 1): 26708.6 ng/mL | induction of an antibody to Aβ [5]: observed | Antibody titer Animal No. 1 (Example 2): 32 ng/mL | Antibody titer Animal No. 2 (Example 2): 30482 ng/mL | Antibody titer Animal No. 3 (Example 2): 33623 ng/mL | Antibody titer Animal No. 4 (Example 2): 2072 ng/mL | Antibody titer Mean (Example 2): 16552.3 ng/mL | induction of an antibody to Aβ [3]: observed | Antibody titer Animal No. 1 (Example 5): 886.2 ng/mL | Antibody titer Animal No. 2 (Example 5): 463379 ng/mL | Antibody titer Animal No. 3 (Example 5): 414.8 ng/mL | Antibody titer Animal No. 4 (Example 5): 3314 ng/mL | Antibody titer Mean (Example 5): 116998.5 ng/mL

DAEFRHDSGYKGAIIGLMVGGVC [1-10•28-39AACys, 1-10+28-39-amino acid Aβ peptide with addition of Cysteine]
Antibody titer Animal No. 1 (Example 2): 139361 ng/mL | Antibody titer Animal No. 2 (Example 2): 10808 ng/mL | Antibody titer Animal No. 3 (Example 2): 13326 ng/mL | Antibody titer Animal No. 4 (Example 2): 230453 ng/mL | Antibody titer Mean (Example 2): 98487.0 ng/mL | induction of an antibody to Aβ [3]: observed

DAEFRHDSGYEVHHQKLVCKGAIIGLMVG [1-18Cys28-37AA, Aβ residues 1-18, cysteine, then Aβ residues 28-37]
Antibody titer Animal No. 1 (Example 8): 12541 ng/mL | Antibody titer Animal No. 2 (Example 8): 1964 ng/mL | Antibody titer Animal No. 3 (Example 8): 599 ng/mL | Antibody titer Animal No. 4 (Example 8): 25102 ng/mL | Antibody titer Mean (Example 8): 10051.5 ng/mL | induction of an antibody to Aβ [1]: observed

DAEFRHDSGYKGAIIGLMVC [1-10•28-36AACys, 1-10+28-36-amino acid Aβ peptide with addition of Cysteine]
Antibody titer Animal No. 1 (Example 2): 11821 ng/mL | Antibody titer Animal No. 2 (Example 2): 259763 ng/mL | Antibody titer Animal No. 3 (Example 2): 77 ng/mL | Antibody titer Animal No. 4 (Example 2): 44922 ng/mL | Antibody titer Mean (Example 2): 79145.6 ng/mL | induction of an antibody to Aβ [3]: observed

DAEFRHDKGAIIGLMVGC [1-7•28-37AACys, 1-7+28-37-amino acid Aβ peptide with addition of Cysteine]
Antibody titer Animal No. 1 (Example 3): 26 ng/mL | Antibody titer Animal No. 2 (Example 3): 27 ng/mL | Antibody titer Animal No. 3 (Example 3): 34 ng/mL | Antibody titer Animal No. 4 (Example 3): 15 ng/mL | Antibody titer Mean (Example 3): 25.6 ng/mL

DAEFRHDSGYKGAIIGLMVGGC [1-10•28-38AACys, 1-10+28-38-amino acid Aβ peptide with addition of Cysteine]
Antibody titer Animal No. 1 (Example 2): 19149 ng/mL | Antibody titer Animal No. 2 (Example 2): 34270 ng/mL | Antibody titer Animal No. 3 (Example 2): 108780 ng/mL | Antibody titer Animal No. 4 (Example 2): 61824 ng/mL | Antibody titer Mean (Example 2): 56005.8 ng/mL | induction of an antibody to Aβ [3]: observed

DAEFRHDSGYKGAIIGLMVGGVVIA [1-10•28-42AA, 1-10+28-42-amino acid Aβ peptide, without addition of cysteine, reference compound]
Antibody titer Animal No. 1 (Example 1): 66 ng/mL | Antibody titer Animal No. 2 (Example 1): 715 ng/mL | Antibody titer Animal No. 3 (Example 1): 3559 ng/mL | Antibody titer Animal No. 4 (Example 1): 13 ng/mL | Antibody titer Mean (Example 1): 1088.5 ng/mL | induction of an antibody to Aβ [5]: observed

DAEFRHDSGYKGAIIGLC [1-10•28-34AACys, 1-10+28-34-amino acid Aβ peptide with addition of Cysteine]
Antibody titer Animal No. 1 (Example 2): 29 ng/mL | Antibody titer Animal No. 2 (Example 2): 30 ng/mL | Antibody titer Animal No. 3 (Example 2): 26 ng/mL | Antibody titer Animal No. 4 (Example 2): 25 ng/mL | Antibody titer Mean (Example 2): 27.4 ng/mL
